Test results published in the CheMixHub ionic liquid set.

Experiment: xn = mol fraction of the nth substance listed
Conditions: 100 kPa

CCCCCCCC[n+]1ccccc1.[Br-] + CC(C)C[C@H](NC(=O)CN)C(=O)O + O
electrical conductivity [S/m]
Conditions | 288.15 K | 293.15 K | 298.15 K
x2 = 0.0008948, x1 = 0.005954 | – | – | 1.49
x2 = 0.0008948, x1 = 0.005956 | – | 1.31 | –
x2 = 0.0008948, x1 = 0.005958 | 1.18 | – | –
x2 = 0.0008949, x1 = 0.005843 | – | 1.3 | 1.48
x2 = 0.0008949, x1 = 0.005845 | 1.16 | – | –
x2 = 0.0008952, x1 = 0.005554 | – | 1.27 | 1.44
x2 = 0.0008952, x1 = 0.005555 | 1.12 | – | –
x2 = 0.0008955, x1 = 0.005221 | – | – | 1.38
x2 = 0.0008955, x1 = 0.005223 | 1.08 | 1.22 | –
x2 = 0.0008958, x1 = 0.004872 | – | – | 1.34
x2 = 0.0008958, x1 = 0.004874 | 1.04 | 1.17 | –
x2 = 0.0008961, x1 = 0.004508 | – | 1.12 | 1.29
x2 = 0.0008961, x1 = 0.00451 | 0.998 | – | –
x2 = 0.0008965, x1 = 0.004089 | – | 1.06 | 1.21
x2 = 0.0008965, x1 = 0.00409 | 0.947 | – | –
x2 = 0.0008969, x1 = 0.003623 | – | 0.983 | 1.12
x2 = 0.0008969, x1 = 0.003625 | 0.867 | – | –
x2 = 0.0008973, x1 = 0.003174 | 0.789 | 0.894 | 1.02
x2 = 0.0008978, x1 = 0.002616 | 0.679 | 0.781 | 0.883
x2 = 0.0008984, x1 = 0.002001 | 0.558 | 0.632 | 0.72
x2 = 0.0008987, x1 = 0.001608 | 0.469 | 0.526 | 0.604
x2 = 0.0008991, x1 = 0.001214 | 0.381 | 0.427 | –
x2 = 0.0008996, x1 = 0.0007137 | 0.253 | 0.283 | –
x2 = 0.001788, x1 = 0.005807 | – | 1.28 | –
x2 = 0.001788, x1 = 0.005808 | 1.12 | – | –
x2 = 0.001789, x1 = 0.005198 | – | 1.19 | –
x2 = 0.001789, x1 = 0.005199 | 1.05 | – | –
x2 = 0.001789, x1 = 0.005513 | – | 1.24 | –
x2 = 0.001789, x1 = 0.005515 | 1.09 | – | –
x2 = 0.00179, x1 = 0.004869 | – | 1.14 | –
x2 = 0.00179, x1 = 0.004871 | 1.01 | – | –
x2 = 0.001791, x1 = 0.00409 | 0.911 | 1.04 | –
x2 = 0.001791, x1 = 0.004503 | 0.962 | 1.1 | –
x2 = 0.001792, x1 = 0.003637 | – | 0.959 | –
x2 = 0.001792, x1 = 0.003639 | 0.855 | – | –
x2 = 0.001793, x1 = 0.003149 | 0.766 | 0.869 | –
x2 = 0.001794, x1 = 0.002603 | 0.666 | 0.756 | –
x2 = 0.001795, x1 = 0.002003 | 0.545 | 0.615 | –
x2 = 0.001796, x1 = 0.001632 | 0.462 | 0.523 | –
x2 = 0.001797, x1 = 0.0008258 | 0.273 | 0.306 | –
x2 = 0.001797, x1 = 0.001246 | 0.37 | 0.419 | –
